Here are results for 17 molecules from US7238775B2, “Receptor(SSTR4)-selective somatostatin analogs” (The Salk Institute for Biological Studies, priority 2002, dated 2007).

Where “and” joins values, the source holds several entries; their conditions need not be identical. Equal entries are not always repeated. Numbered stars: 1 amine (or outer) side, 2 acyl side, 3 side chain; on linkers, the order of the positions; unused ones are H or OH. Bridge positions count the residues as written; N and C are the ends. Square brackets hold non-standard residues; d marks the D form. Ends that are not written are not given here. Peptide text beside a SMILES is read from it. * marks the point of attachment. DOTA = O=C(O)CN1CCN(CC(=O)O)CCN(CC(=O)*)CCN(CC(=O)O)CC1; d2Nal(3S-Me) = C[C@@H](c1ccc2ccccc2c1)[C@@H](N)C(=O)O; Phe(4-NH2) = Nc1ccc(C[C@H](N)C(=O)O)cc1; X2 = NC(=O)N[C@@H](CS[*:2])C(=O)[*:1]; GABA = NCCCC(=O)O

T1 sequence (P30872 whole entry): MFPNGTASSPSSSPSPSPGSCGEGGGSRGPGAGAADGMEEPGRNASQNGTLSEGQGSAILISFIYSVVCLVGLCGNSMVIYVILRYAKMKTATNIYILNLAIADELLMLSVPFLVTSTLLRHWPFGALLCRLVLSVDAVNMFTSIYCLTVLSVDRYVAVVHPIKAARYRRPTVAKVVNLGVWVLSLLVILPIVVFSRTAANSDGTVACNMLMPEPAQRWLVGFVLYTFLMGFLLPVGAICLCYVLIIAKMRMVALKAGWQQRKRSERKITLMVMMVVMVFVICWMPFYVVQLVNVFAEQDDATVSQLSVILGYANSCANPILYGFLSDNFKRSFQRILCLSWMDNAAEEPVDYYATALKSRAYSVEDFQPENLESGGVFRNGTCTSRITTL

The first assay addresses T1, hSSTR1 (Homo sapiens, UniProt P30872).
T1 construct: expressed in transfected cells; host or cells: CHO-K1 cells and CCL39 cells
Kind of assay: Displacement of 125I-[Leu8,D-Trp22,Tyr25]SRIF-28 from cloned receptor, membrane pellet autoradiography. In kind it is binding. Particulars: inhibition of 125I-SRIF-28 radioligand binding, cloned human receptor. On the procedure: (§1) In vitro Bioassay: The effects of the various somatostatin analogs are tested in vitro for their ability to bind to isolated cloned receptors expressed on CHO-K1 cells and CCL39 cells. CHO-K1 cells are grown in Ham's F-12 medium, and CCL39 cells are grown in Dulbecco's modified Eagle's medium/Ham's F-12(1:1) mix, supplemented with 10% fetal bovine serum, 100 U/ml penicillin and 100 μg/ml streptomycin, in humidified air containing 5% CO2 at 37° C.
(§2) Cells are washed twice with and scraped into ice-cold 0.05 M Tris-HCl (pH 7.4), collected by centrifugation, and homogenized using a rotor/stator/system in the same buffer. After centrifugation at 120 g for 5 min at 4° C., the supernatant is collected and centrifuged again at 48,000 g for 30 min at 4° C. The resulting pellet is resuspended in ice-cold Tris buffer, transferred into a microfuge tube, and centrifuged at 20,000 g for 15 min at 4° C. After withdrawal of the supernatant, the membrane pellet is stored at −80° C.
Receptor autoradiography is performed on 20 μm thick cryostat sections of the membrane pellets, mounted on microscope slides, and then stored at −20° C. […] […] […] IC50 values are calculated after quantification of the data using a computer-assisted image processing system as known in this art.
(§3) The numbers in parentheses indicate the number of times the particular binding test was carried out.
Usually IC50 stands for the concentration that gives 50% inhibition. On to `C[C@@H](O)[C@@H]1NC(=O)[C@H](CCCCN)NC(=O)[C@H](Cc2c[nH]c3ccccc23)NC(=O)[C@H](Cc2ccc(CN)cc2)NC(=O)[C@H](Cc2ccccc2)NC(=O)[C@@H](NC(=O)[C@H](Cc2ccc(O)cc2)NC(N)=O)CSSC[C@@H](C(=O)O)NC(=O)[C@H](Cc2ccccc2)NC1=O` [Peptide No. 15A, (cyclo)Cbm-Tyr-Cys-Phe-Amp-Trp-Lys-Thr-Phe-Cys-OH], for which the IC50 is above 1000 nM. On the same count and under the same terms, with `C[C@@H](O)[C@@H]1NC(=O)[C@H](CCCCN)NC(=O)[C@H](Cc2c[nH]c3ccccc23)NC(=O)[C@H](Cc2ccc(CN)cc2)NC(=O)[C@H](Cc2ccccc2)NC(=O)[C@@H](NC(=O)[C@@H](N)Cc2ccc(O)cc2)CSSC[C@@H](C(=O)O)NC(=O)[C@H](Cc2ccccc2)NC1=O` [Peptide No. 15, (cyclo)H-Tyr-Cys-Phe-4 Amp-Trp-Lys-Thr-Phe-Cys-OH] the figure was above 1000 nM.

For another assay, the target named is T2, hSSTR4 (Homo sapiens, UniProt P31391).
T2 construct: expressed in transfected cells; host or cells: CHO-K1 cells and CCL39 cells
T2 sequence (P31391 whole entry): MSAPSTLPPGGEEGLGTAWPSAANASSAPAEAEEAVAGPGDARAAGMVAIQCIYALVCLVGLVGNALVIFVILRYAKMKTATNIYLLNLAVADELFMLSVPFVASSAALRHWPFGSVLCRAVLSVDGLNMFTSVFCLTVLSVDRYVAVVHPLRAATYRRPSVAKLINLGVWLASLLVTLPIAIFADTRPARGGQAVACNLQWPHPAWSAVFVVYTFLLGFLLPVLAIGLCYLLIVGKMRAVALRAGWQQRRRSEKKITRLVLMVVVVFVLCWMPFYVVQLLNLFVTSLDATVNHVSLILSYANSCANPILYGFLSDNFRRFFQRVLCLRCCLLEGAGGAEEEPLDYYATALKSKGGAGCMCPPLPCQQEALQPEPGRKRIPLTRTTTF
The assay is described as above. The class given is binding.
Conditions: not given
On the procedure:
as §1, §2
Receptor autoradiography is performed on 20 μm thick cryostat sections of the membrane pellets, mounted on microscope slides, and then stored at −20° C. […] Increasing concentrations of the unlabeled peptide are used ranging from 0.1-1000 nM. […] IC50 values are calculated after quantification of the data using a computer-assisted image processing system as known in this art.
as §3
Take `C[C@@H]1NC(=O)[C@H](Cc2ccccc2)NC(=O)[C@@H](NC(=O)CN2CCN(CC(=O)O)CCN(CC(=O)O)CCN(CC(=O)O)CC2)CSSC[C@@H](C(=O)O)NC(=O)[C@H](Cc2ccccc2)NC(=O)[C@H]([C@@H](C)O)NC(=O)[C@H](CCCCN)NC(=O)[C@H](Cc2c[nH]c3ccccc23)NC1=O` [Peptide 12C] ({DOTA}-CFAWKTFC-OH; disulfide 1-8): the “selectivity in binding to SSTR4 compared with the other 4 receptors (in words)” value (“selectivity in binding to SSTR4” below) is listed as “continues to show selectivity in binding to hSSTR4”. The same measure, in the same setting: with “(cyclo)H-Cys-Phe-Val-D-Trp-Lys-Thr-Phe-Cys-OH (H-CFV[dW]KTFC-OH; disulfide 1-8; SMILES CC(C)[C@@H]1NC(=O)[C@H](Cc2ccccc2)NC(=O)[C@@H](N)CSSC[C@@H](C(=O)O)NC(=O)[C@H](Cc2ccccc2)NC(=O)[C@H]([C@@H](C)O)NC(=O)[C@H](CCCCN)NC(=O)[C@@H](Cc2c[nH]c3ccccc23)NC1=O) [Peptide 11A]” the entry was “selective in binding to hSSTR4”.

In the case of `C[C@@H]1NC(=O)[C@H](Cc2ccccc2)NC(=O)[C@@H](N)CSSC[C@@H](C(=O)O)NC(=O)[C@H](Cc2ccccc2)NC(=O)[C@H]([C@@H](C)O)NC(=O)[C@H](CCCCN)NC(=O)[C@@H](Cc2c[nH]c3ccccc23)NC1=O` [Peptide No. 11, (cyclo)H-Cys-Phe-Ala-D-Trp-Lys-Thr-Phe-Cys-OH] (H-CFA[dW]KTFC-OH; disulfide 1-8), the “selectivity in binding to SSTR4” value is “selectively binds to SSTR4”.

Consider “(cyclo)Cys-Phe-Val-Trp-Lys-Thr-Val-Cys-OH (CFVWKTVC-OH; disulfide 1-8 (inferred)) [Peptide No. 12F]”, for which the “selectivity in binding to SSTR4” value is on record as “selective in binding to hSSTR4”. Consider “(cyclo)H-Cys-Phe-Ala-Trp-Lys-Thr-Gly-Cys-OH (H-CFAWKTGC-OH; disulfide 1-8 (inferred)) [Peptide 12G]”, for which the “selectivity in binding to SSTR4” value is on record as “selective in binding to hSSTR4”. Still for that read-out and setting: to “(cyclo)H-Cys-Phe-Ala-Trp-Lys-Thr-Val-Cys-OH (H-CFAWKTVC-OH; disulfide 1-8 (inferred)) [Peptide 12E]” belongs “selective in binding to hSSTR4”. For the molecule `C[C@@H](O)[C@@H]1NC(=O)[C@H](CCCCN)NC(=O)[C@@H]([C@@H](C)c2ccc3ccccc3c2)NC(=O)[C@H](Cc2ccc(O)cc2)NC(=O)[C@H](Cc2ccccc2)NC(=O)[C@@H](N)CSSC[C@@H](C(=O)O)NC(=O)[C@H](Cc2ccccc2)NC1=O` [Peptide No. 17, (cyclo)H-Cys-Phe-Tyr-threo-(2R,3S)C^βMe-2Nal-Lys-Thr-Phe-Cys-OH] (H-CFY[d2Nal(3S-Me)]KTFC-OH; disulfide 1-8), the “selectivity in binding to SSTR4” value is “show selectivity for binding to SSTR4”.

As for `C[C@@H]1NC(=O)[C@H](Cc2ccccc2)NC(=O)[C@@H](NC(=O)CCCNC(=O)CN2CCN(CC(=O)O)CCN(CC(=O)O)CCN(CC(=O)O)CC2)CSSC[C@@H](C(=O)O)NC(=O)[C@H](Cc2ccccc2)NC(=O)[C@H]([C@@H](C)O)NC(=O)[C@H](CCCCN)NC(=O)[C@H](Cc2c[nH]c3ccccc23)NC1=O` [Peptide 12D] ({DOTA-GABA}-CFAWKTFC-OH; disulfide 1-8), the “selectivity in binding to SSTR4” value is recorded as “continues to show selectivity in binding to hSSTR4”.

The same assay, now with this note: inhibition of 125I-SRIF-28 radioligand binding, cloned human receptor.
`C[C@@H](O)[C@@H]1NC(=O)[C@H](CCCCN)NC(=O)[C@H](Cc2c[nH]c3ccccc23)NC(=O)[C@H](Cc2ccc(N)cc2)NC(=O)[C@H](Cc2ccccc2)NC(=O)[C@@H](N)CSSC[C@@H](C(=O)O)NC(=O)[C@H](Cc2ccc(O)cc2)NC1=O` [Peptide No. 9, (cyclo)H-Cys-Phe-4Aph-Trp-Lys-Thr-Tyr-Cys-OH] showed an IC50 of 1.1 ± 0.2 nM.

Molecule `C[C@@H]1NC(=O)[C@H](Cc2ccccc2)NC(=O)[C@@H](N)CSSC[C@@H](C(=O)O)NC(=O)[C@H](Cc2ccccc2)NC(=O)[C@H]([C@@H](C)O)NC(=O)[C@H](CCCCN)NC(=O)[C@@H](Cc2c[nH]c3ccccc23)NC1=O` [Peptide No. 11, (cyclo)H-Cys-Phe-Ala-D-Trp-Lys-Thr-Phe-Cys-OH] (H-CFA[dW]KTFC-OH; disulfide 1-8) came in with an IC50 of 0.98 nM. Same read-out and setting: with `C[C@@H]1NC(=O)[C@H](Cc2ccccc2)NC(=O)[C@@H](N)CSSC[C@@H](C(=O)O)NC(=O)[C@H](C)NC(=O)[C@H]([C@@H](C)O)NC(=O)[C@H](CCCCN)NC(=O)[C@H](Cc2c[nH]c3ccccc23)NC1=O` [Peptide No. 12A] (H-CFAWKTAC-OH; disulfide 1-8) the figure was 3.5 ± 0.8 nM; with `C[C@@H]1NC(=O)[C@H](Cc2ccccc2)NC(=O)[C@@H](NC(=O)[C@@H](N)Cc2ccc(O)cc2)CSSC[C@@H](C(=O)O)NC(=O)[C@H](Cc2ccccc2)NC(=O)[C@H]([C@@H](C)O)NC(=O)[C@H](CCCCN)NC(=O)[C@@H](Cc2c[nH]c3ccccc23)NC1=O` [Peptide No. 14, (cyclo)H-Tyr-Cys-Phe-Ala-D-Trp-Lys-Thr-Phe-Cys-OH], 1.1 ± 0.2 nM. The same measure, in the same setting: with `C[C@@H]1NC(=O)[C@H](Cc2ccccc2)NC(=O)[C@@H](NC(=O)[C@@H](N)Cc2ccc(O)c(I)c2)CSSC[C@@H](C(=O)O)NC(=O)[C@H](Cc2ccccc2)NC(=O)[C@H]([C@@H](C)O)NC(=O)[C@H](CCCCN)NC(=O)[C@H](Cc2c[nH]c3ccccc23)NC1=O` [Peptide No. 13A] the figure was around 3.5 nM. Still for that read-out and setting: with `C[C@@H](O)[C@@H]1NC(=O)[C@H](CCCCN)NC(=O)[C@@H](Cc2c[nH]c3ccccc23)NC(=O)[C@H](Cc2ccc(N)cc2)NC(=O)[C@H](Cc2ccccc2)NC(=O)[C@@H](NC(N)=O)CSSC[C@@H](C(=O)O)NC(=O)[C@H](Cc2ccccc2)NC1=O` [Peptide No. 4, (cyclo)Cbm-Cys-Phe-4Aph-D-Trp-Lys-Thr-Phe-Cys-OH] (F[Phe(4-NH2)][dW]KTFC-OH; linker N-7 via X2) the figure was 1.1 ± 0.2 nM. Take `C[C@@H](O)[C@@H]1NC(=O)[C@H](CCCCN)NC(=O)[C@@H](Cc2c[nH]c3ccccc23)NC(=O)[C@H](Cc2ccc(N)cc2)NC(=O)[C@H](Cc2ccccc2)NC(=O)[C@@H](NC(=O)[C@@H](N)Cc2ccc(O)cc2)CSSC[C@@H](C(=O)O)NC(=O)[C@H](Cc2ccccc2)NC1=O` [Peptide No. 7, (cyclo)H-Tyr-Cys-Phe-4Aph-D-Trp-Lys-Thr-Phe-Cys-OH]: the IC50 turned out to be 1.2 ± 0.3 nM. On the same count and under the same terms, with `C[C@@H](O)[C@@H]1NC(=O)[C@H](CCCCN)NC(=O)[C@H](Cc2c[nH]c3ccccc23)NC(=O)[C@H](Cc2ccc(N)cc2)NC(=O)[C@H](Cc2ccccc2)NC(=O)[C@@H](NC(=O)[C@H](Cc2ccc(O)cc2)NC(N)=O)CSSC[C@@H](C(=O)O)NC(=O)[C@H](Cc2ccccc2)NC1=O` [Peptide No. 8, (cyclo)Cbm-Tyr-Cys-Phe-4Aph-Trp-Lys-Thr-Phe-Cys-OH] the figure was ~1.2 nM and 1.2 nM.
